Read-outs that look alike come from different tables or passages of the source.
Key:
[1] = test system: P. falciparum CQ-resistant strain W2; experiment: In vitro antiplasmodial activity, SYBR Green I fluorescence-based method, W2 strain; assay type: cell-based, Plasmodium falciparum; settings: for IC50: Plasmodium falciparum, read-out: P. falciparum strains IC50 values, W2; for Selectivity Index HepG2/W2: ratio CC50 HepG2 / IC50 W2
Method: (§1) The in vitro antiplasmodial activities were tested over concentrations ranging from 39 nM to 40 μM against culture-adapted Plasmodium falciparum reference strains 3D7 and W2. […] The parasites were cultivated in RPMI medium (Sigma-Aldrich, Lyon, France) supplemented with 0.5% Albumax I (Life Technologies corporation, Paisley, United Kingdom), hypoxanthine (Sigma-Aldrich), gentamicin (Sigma-Aldrich), and human erythrocytes and were incubated at 37 °C in a candle jar, as described previously. The P. falciparum drug susceptibility test was carried out in 96-well flat bottom sterile plates under a final volume of 250 μL. After a 48 h incubation with the drugs, quantities of DNA in treated and control cultures of parasites in human erythrocytes were compared according to the SYBR Green I (Sigma-Aldrich) fluorescence-based method[38]^,[39]. Briefly, after incubation, plates were frozen at -20 °C until use. They were then left to thaw for 2 h at room temperature and 100 μL of the homogenized culture were transferred to 96-well flat bottom sterile black plates (Nunc Inc) already containing 100 μL of the SYBR Green I lysis buffer (2xSYBR Green, 20 mM Tris base pH 7.5, 5 mM EDTA, 0.008% w/v saponin, 0.08% w/v Triton X-100). […] Plates were incubated for 1 h at room temperature and then read on a fluorescence plate reader (Tecan, Austria) using excitation and emission wavelengths of 485 and 535 nm, respectively.

[2] = test system: P. falciparum CQ-sensitive strain 3D7; experiment: In vitro antiplasmodial activity, SYBR Green I fluorescence-based method, 3D7 strain; assay type: cell-based, Plasmodium falciparum; settings: for IC50: Plasmodium falciparum, 3D7, 48 h, read-out: P. falciparum strains IC50 values, 3D7; for Selectivity Index HepG2/3D7: ratio CC50 HepG2 / IC50 3D7
Method: as §1

[3] = test system: L. donovani (MHOM/IN/00/DEVI) promastigotes; experiment: In vitro antileishmanial activity on promastigotes, MTT assay; assay type: cell-based; settings: Leishmania donovani, 72 h incubation, mean ± SD of three independent experiments
Method: L. donovani (MHOM/IN/00/DEVI) used in this study was provided by the CNR Leishmania (Montpellier, France). The effects of the tested compounds on the growth of L. donovani (MHOM/IN/00/DEVI)promastigotes were assessed by MTT assay[41] .Briefly, promastigotes in log-phase in Schneider′s medium supplemented with 20% fetal calf serum (FCS), 2 mM L-glutamine and antibiotics (100 U/mL penicillin and 100 μg/mL streptomycin), were incubated at an average density of 10^6 parasites/mL in sterile 96-well plates with various concentrations of compounds dissolved in DMSO (final concentration less than 0.5% v/v), in duplicate. Appropriate controls treated by DMSO and pentamidine or amphotericin B (reference drugs purchased from Sigma-Aldrich) were added to each set of experiments. After a 72 h incubation period at 27 °C, parasite metabolic activity was determined. Each plate-well was then microscope-examined for detecting possible precipitate formation. 20 μL of MTT 3–(4,5-dimethylthiazol-2-yl)-2,5-diphenyltetrazolium bromide) solution (5 mg/mL) were added to each well followed by incubation for another 4 h. The enzyme reaction was then stopped by addition of 100 μL of 50% isopropanol – 10% sodium dodecyl sulfate[42] .Plates were shaken vigorously (300 rpm) for 10 minutes and the absorbance measured in a plate reader at 570 nm in a BIO-TEK ELx808 Absorbance Microplate Reader. […] IC50 were calculated by non-linear regression analysis processed on doseresponse curves, using TableCurve 2D V5.0 software. IC50 values represent the mean value calculated from three independent experiments.

[4] = Cytotoxicity evaluation, MTT assay; assay type: cell-based, human; settings: human, HepG2 cells (hepatocarcinoma cell line, ATCC HB-8065); HepG2, 72 h incubation, mean ± SD of three independent experiments
Method: (§2) These assays were performed toward the human HepG2 cell line (HepG2 CC50). […] These cells express many of the hepatocyte-specific metabolic enzymes, thus enabling the cytotoxicity of tested product metabolites to be evaluated. […] Duplicate assays were performed for each sample. Each plate-well was then microscope-examined for detecting possible precipitate formation before the medium was aspirated from the wells. 100 μL of MTT solution (0.5 mg/mL in medium without FCS) were then added to each well. […] After this time, the MTT solution was removed and DMSO (100 μL) was added to dissolve the resulting blue formazan crystals. Plates were shaken vigorously (300 rpm) for 5 minutes. The absorbance was measured at 570 nm with 630 nm as reference wavelength spectrophotometer using a BIO-TEK ELx808 Absorbance Microplate Reader. DMSO was used as blank and doxorubicin (Sigma Aldrich) as positive control. Cell viability was calculated as percentage of control (cells incubated without compound). The 50% cytotoxic concentration was determined from the dose-response curve by using the TableCurve 2D V5.0 software (Systat Software, San Jose, CA).

[5] = test system: Plasmodium telomeric quadruplex FPf1T; experiment: FRET melting experiments, FPf1T; assay type: binding, Plasmodium falciparum; settings: compound at 5 μM, 200 nM oligonucleotide, K+ condition; result in words
Method: (§3) FRET melting experiments were performed with dual-labeled oligonucleotides mimicking the Plasmodium telomeric sequences FPf1T [FAM-^5′(GGGTTTA)3-GGG^3′-TAMRA] and FPf8T [FAM-^5′(GGGTTCA)3GGG^3′-TAMRA] and the human telomeric sequence F21T [FAM-(GGGTTA)3-GGG^3′- TAMRA][36]^,[43]. The oligonucleotides were prefolded in 10 mM lithium cacodylate buffer (pH 7.2), with 10 mM KCl and 90 mM LiCl (K^+ condition). […] The data obtained were normalized between 0 and 1, and the temperature required for half-denaturationof oligonucleotides corresponded to the emission value of 0.5 was calculated as ΔTm. Each experiment was performed in duplicate with 200 nM of labeled oligonucleotide and 0, 1, 2, or 5 μM of compound under K^+ condition. For each compound, two independent experiments were carried out. The data were plotted using OriginPro 9.1 software (OriginLab Corporation, Northampton, MA).

[6] = test system: Plasmodium telomeric quadruplex FPf8T; experiment: FRET melting experiments, FPf8T; assay type: binding, Plasmodium falciparum; settings: compound at 5 μM, 200 nM oligonucleotide, K+ condition; result in words
Method: as §3

[7] = test system: human telomeric quadruplex F21T; experiment: FRET melting experiments, F21T; assay type: binding; settings: compound at 5 μM, 200 nM oligonucleotide, K+ condition; result in words
Method: as §3

[8] = test system: HepG2 cell line; experiment: Cytotoxicity evaluation, MTT assay; assay type: cell-based, human; settings: HepG2, 72 h incubation, mean ± SD of three independent experiments
Method: as §2

[9] = chloroquine-resistant strain W2, 48 h incubation
[10] = chloroquine-sensitive strain 3D7, 48 h incubation

Row | SMILES | IC50 [1, 9] [nM] | Selectivity Index HepG2/W2 [1] | IC50 [2, 10] [nM] | Selectivity Index HepG2/3D7 [2] | IC50 [3] [nM] | CC50 at 72 h [4] [nM] | Thermal stabilization (ΔTm) on FPf1T [5] | Thermal stabilization (ΔTm) on FPf8T [6] | IC50 ([1]; W2, 48 h) [nM] | IC50 [2] [nM] | Thermal stabilization (ΔTm) on F21T [7] | CC50 [8] [nM]
1 | COc1ccc2c(c1)nc(-c1ccc(CNCCCN3CCN(CCCNCc4ccc(-c5nc6cc(OC)ccc6n6cccc56)cc4)CC3)cc1)c1cccn12 [1e, Bis{N-[4–(7-methoxypyrrolo[1,2-a]quinoxalin-4-yl)benzyl]-3-aminopropyl}piperazine] | 210 ± 30 | 6.95 | 2620 ± 250 | 0.56 | 2520 ± 100 | 1460 ± 600 | more active on the Plasmodium sequences with the higher ΔTm | more active on the Plasmodium sequences with the higher ΔTm | – | – | – | –
2 | COc1cccc2nc(-c3ccc(CNCCCN4CCN(CCCNCc5ccc(-c6nc7cccc(OC)c7n7cccc67)cc5)CC4)cc3)c3cccn3c12 [1i, Bis{N-[4–(9-methoxypyrrolo[1,2-a]quinoxalin-4-yl)benzyl]-3-aminopropyl}piperazine] | 320 ± 40 | 4.16 | 1280 ± 100 | 1.04 | 1580 ± 100 | 1330 ± 300 | more active on the Plasmodium sequences with the higher ΔTm | more active on the Plasmodium sequences with the higher ΔTm | – | – | – | –
3 | CCN(CC)CCCC(C)Nc1ccnc2cc(Cl)ccc12 (stereo not shown) [Chloroquine, reference compound] | – | – | – | – | – | – | very slight stabilization | very slight stabilization | 200 ± 30 | 80 ± 3 | very slight stabilization | –
4 | OC(c1cc(C(F)(F)F)nc2c(C(F)(F)F)cccc12)C1CCCCN1 (stereo not shown) [Mefloquine, reference compound] | 32 ± 1 | – | 80 ± 8 | – | – | – | very slight stabilization | very slight stabilization | – | – | very slight stabilization | –
5 | N=C(N)c1ccc(OCCCCCOc2ccc(C(=N)N)cc2)cc1 [Pentamidine, reference compound] | – | – | – | – | 5500 ± 800 | – | – | – | – | – | – | 2300 ± 500

— paper PMC6445168, “Design, synthesis and antimalarial activity of novel bis{N-[(pyrrolo[1,2-a]quinoxalin-4-yl)benzyl]-3-aminopropyl}amine derivatives” (Journal of Enzyme Inhibition and Medicinal Chemistry, 2017)
